US7960349B2 (Bristol-Myers Squibb Company, priority 2006, dated 2011)
Where a SMILES comes first, the peptide text is derived from it. [ ]: non-standard residue; d: D form. The star is where a group is joined. ξ: configuration not given here. Ala(6-(2-MePh)pyridin-3-yl) = Cc1ccccc1-c1ccc(C[C@H](N)C(=O)O)cn1; Phe(4-(2-Et-4-HO-Ph)) = CCc1cc(O)ccc1-c1ccc(C[C@H](N)C(=O)O)cc1; ξαMePhe(2-F) = CC(N)(Cc1ccccc1F)C(=O)O; ξαMeP = CC1(C(=O)O)CCCN1; Moc = COC(=O)*

Key:
[1] = molecular target: T1, Human GLP-1 Receptor (Homo sapiens, UniProt P43220); assay: Cyclic AMP determination in CHO cells expressing human GLP-1 receptor; assay type: cell-based
T1 construct: Full-length human glucagon-like peptide 1 receptor was stably expressed in CHO-K1 cells; expressed in transfected cells; host or cells: CHO-K1 (clone CHO-GLP1R-19)
T1 sequence (P43220 24-463): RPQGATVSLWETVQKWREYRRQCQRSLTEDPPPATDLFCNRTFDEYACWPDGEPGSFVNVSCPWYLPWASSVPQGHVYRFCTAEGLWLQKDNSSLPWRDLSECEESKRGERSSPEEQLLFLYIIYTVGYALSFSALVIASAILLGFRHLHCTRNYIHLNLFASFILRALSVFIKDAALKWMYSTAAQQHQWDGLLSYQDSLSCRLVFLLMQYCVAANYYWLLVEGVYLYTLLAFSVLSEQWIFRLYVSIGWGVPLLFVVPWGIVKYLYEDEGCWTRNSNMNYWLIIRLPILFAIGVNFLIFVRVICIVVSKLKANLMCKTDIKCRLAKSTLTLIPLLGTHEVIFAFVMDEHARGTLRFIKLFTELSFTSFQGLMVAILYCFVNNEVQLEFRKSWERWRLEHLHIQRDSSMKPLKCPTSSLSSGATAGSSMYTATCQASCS
Protocol: (§1) CHO-GLP-1R-19 cells (20,000 in 100 μl of media) were plated into each well of a 96-well tissue culture microtiter plate and incubated overnight in a 5% CO2 atmosphere at 37° C. On the day of the assay, cells were washed once with 100 μl of phosphate-buffered saline (PBS). A Biomek 2000 was used to serially dilute all peptides prior to beginning the assay. Serial dilutions were carried out in 100% DMSO.
(§2) 50 μl of each cAMP standard was added by hand and 70 μl of mix reagent (Amersham cAMP SPA kit) was added using the multidrop. […] This standard curve was used to convert CPM to pmol of cAMP.
(§3) Cell plates and peptide plates were loaded onto the Platemate. The media was aspirated from the wells and discarded. 100 uL per well of the peptide/buffer mixture were then added from the peptide plates to initiate the assay. After 30 min. of incubation the peptide/buffer was removed and 50 uL of the lysis reagent 1 solution was added per well. The plate was kept for one hour at RT or overnight if refrigerated and sealed.
(§4) Dose dependence for Compounds was determined at half-log concentrations in duplicate. […] A standard curve was determined using known amounts of cyclic AMP. […] The data were analyzed by nonlinear regression curve fitting (4 parameter sigmoidal dose-response curve) to determine the EC50 of the compounds.

[2] = tested on: ob/ob mice; assay: Intraperitoneal glucose tolerance test (ipGTT) in ob/ob mice after sc injection; assay type: in vivo, mouse
Protocol: (§5) Peptides were dissolved in an appropriate vehicle at a concentration in nmol/ml equivalent to the dose that was to be administered in nmol/kg so that each mouse would receive the same volume/weight of dosing solution. Male C57BL/6-ob/ob mice (10 weeks old) were randomized into groups of 6 mice per group based on fed plasma glucose and body weight. After an overnight fast, mice were weighed and placed in the experimental lab. After 30 min in the environment, the mice were bled via tail tip at −30 min and immediately injected subcutaneously (sc) with vehicle or the peptide dissolved in vehicle (0.1 ml solution/100 g body weight). At time 0 the mice were bled and then injected intraperitoneally with 50% glucose (2 g/kg) to initiate the intraperitoneal glucose tolerance test (ipGTT). The mice were bled 30, 60, 120 and 180 min after the glucose injection. Blood samples were drawn into potassium EDTA, placed on ice during the study and subsequently centrifuged for 10 min at 3000 rpm at 4° C. Plasma samples were diluted 11-fold for glucose analysis in the Cobas System. Another 5 μl plasma sample was diluted 5-fold with 20 μl of Sample Diluent (Insulin ELISA assay kit, Crystal Chem. Inc.) and stored at −20° C. for subsequent analysis using the Ultra Sensitive Mouse Insulin ELISA kit (Crystal Chem Inc.).

[3] = molecular target: T2, Mouse GLP-1 Receptor (Mus musculus, UniProt O35659); assay: Stimulation of cAMP synthesis in CHO cells expressing mouse GLP-1 receptor; assay type: cell-based
T2 construct: expressed in transfected cells; host or cells: CHO cells
T2 sequence (O35659 22-463): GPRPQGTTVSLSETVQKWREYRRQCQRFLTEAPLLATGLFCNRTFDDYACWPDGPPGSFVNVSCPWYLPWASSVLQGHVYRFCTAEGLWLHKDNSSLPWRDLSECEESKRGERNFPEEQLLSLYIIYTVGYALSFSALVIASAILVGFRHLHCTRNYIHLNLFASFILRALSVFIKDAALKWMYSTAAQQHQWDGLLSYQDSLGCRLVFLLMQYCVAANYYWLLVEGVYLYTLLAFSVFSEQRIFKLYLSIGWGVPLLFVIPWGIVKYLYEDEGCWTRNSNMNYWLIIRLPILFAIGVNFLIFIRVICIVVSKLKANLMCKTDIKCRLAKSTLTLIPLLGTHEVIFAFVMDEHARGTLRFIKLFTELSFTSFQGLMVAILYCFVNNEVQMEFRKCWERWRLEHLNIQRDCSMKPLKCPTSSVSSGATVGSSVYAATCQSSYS
Protocol: as §1, §2, §3, §4

[4] = Dog pharmacokinetic study; assay type: in vivo
Protocol: The pharmacokinetic parameters of the Compounds of SEQ ID NO: 9, 118, 151 and 158 were determined in male beagle dogs (n=3-4, 14±1 kg). Following an overnight fast, each animal received the Compounds of SEQ ID NO: 9, 118, 151 and 158 either as an intravenous bolus via femoral vein (67 μg/kg) or by subcutaneous injection given at near the shoulder blades (67 μg/kg). Each animal received both intravenous and subcutaneous doses with a one-week washout between doses following a crossover design. The dosing vehicle for both routes of administration was propylene glycol:pH 7.4 phosphate buffer (50:50) or 0.2 M Tris (pH 8.0). Serial blood samples were collected in EDTA-containing microcentrifuge tubes at predose, 0.083, 0.25, 0.5, 0.75, 1, 2, 4, 6, 8, 24, and 30 hours post-dose after intravenous administration; at predose, 0.25, 0.5, 0.75, 1, 2, 4, 6, 8, 24, and 30 hours post-dose after subcutaneous administration. Approximately 0.3 mL of blood was collected at each time point. Blood samples were immediately centrifuged at 4° C. The obtained plasma was frozen with dry ice and stored at −20° C. Plasma drug levels were determined using the LC-MS/MS assay described below.
Plasma samples from the in vivo dog study were prepared for analysis by precipitating plasma proteins with two volumes of AcCN containing an internal standard. The samples were vortex mixed and the precipitated proteins were removed by centrifugation. The resulting supernatants were transferred to a 96-well plate and 10 μL were injected for TFC-LC/MS/MS analysis.
The TFC-HPLC system (Cohesive TX-1 Flux, Aria 2300 System) consisted of a loading pump, an eluting pump, and a CTC PAL autosampler (Cohesive Technologies, Franklin, Mass.). The columns used were Phenomenex Synergi Fusion-RP (C18, 2.0×50 mm, 4μ) (Phenomenex, Torrance, Calif.) as the analytical column and Turbo-Flow (TF) HTLC Cyclone column (0.5×50 mm) (Cohesive Technologies, Franklin, Mass.) as the extraction column for on-line sample processing. The mobile phase A consisted of 10 mM ammonium formate and 0.1% formic acid in water and mobile phase B consisted of 0.1% formic acid in AcCN. Turbo-Flow Chromatography was used to obtain a cleaner sample. A rapid gradient elution was used for analyte separation. The samples were injected onto the Turbo-Flow HTLC Cyclone column and analytes were separated from biological fluid components with using 100% H2O at 1.5 mL/min. The TF column was back flushed and analytes were back eluted from the TF to HPLC analytical column using a ramp to 60% B over 2 min and held there for 30 seconds at 0.3 mL/min to separate and to elute the analytes from the HPLC column into the mass spectrometer. Both columns were washed for an additional minute and then both columns were re-equilibrated at initial conditions.
The HPLC was interfaced to a Sciex API 4000 mass spectrometer (Applied Biosystems, Foster City, Calif.) and was equipped with a TurboIonspray ionization source. Ultra high purity nitrogen was used as the nebulizing and turbo-gas. The temperature of turbo-gas was set at 300° C. and the interface heater was set at 60° C. Selected Reaction Monitoring (SRM) was used for data acquisition. Multiple charged ion species, i.e. (M+2H)^2+ for Compound of SEQ ID NO: 158 were selected in Q1 and were collisionally dissociated with high purity nitrogen at a pressure of 3.5×10^−3 torr in Q2 to form specific product ions which were subsequently monitored in Q3. The ion transitions and voltages are summarized below (Table 4).
The standard curve concentrations, ranging from 1 to 1000 nM, were analyzed in duplicate. The curves were fitted with a linear regression weighted by reciprocal concentration […]. Quality control (QC) samples, prepared in blank matrix at the same concentrations as the standards were also analyzed in each analytical set. […]

[5] = Exposure during ipGTT in ob/ob mice; assay type: in vivo, mouse; conditions: sc injection
Protocol: as §5

CCc1cc(O)ccc1-c1ccc(C[C@H](NC(=O)[C@H](CC(=O)O)NC(=O)[C@H](CO)NC(=O)[C@@H](NC(=O)C(C)(Cc2ccccc2F)NC(=O)[C@@H](NC(=O)CNC(=O)[C@H](CCC(=O)O)NC(=O)C2(C)CCCN2C(=O)[C@H](Cc2c[nH]cn2)NC(=O)OC)[C@@H](C)O)[C@@H](C)O)C(=O)N[C@@H](Cc2ccc(-c3ccccc3C)nc2)C(N)=O)cc1 (some centres unmarked) [SEQ ID NO: 158] (Moc-H[ξαMeP]EGT[ξαMePhe(2-F)]TSD[Phe(4-(2-Et-4-HO-Ph))][Ala(6-(2-MePh)pyridin-3-yl)]-NH2)
EC50 [1]: 0.018 nM
Emax ([1]; CHO, percent of maximal GLP-1 stimulated activity, human GLP-1 receptor): 101 ± 6.7%
Mean Hill ([1]; human GLP-1 receptor): 1.5
plasma glucose AUC decreased ([2]; 10 nmol/kg sc, ipGTT ob/ob mice): 66%
Potency in ob/ob mice ED50 ([2]; sc injection, plasma glucose AUC in ipGTT): ED50 = 2 nmoles/kg
effect on postprandial plasma glucose ([2]; sc, ipGTT ob/ob mice, 0 to 180 or 210 min): statistically significant decrease
Mean Hill [3]: 1.5
Emax ([3]; CHO, percent of maximal GLP-1 stimulated activity): 101 ± 7.2%
Vd ([4]; dog, plasma, 67 ug/kg, male beagle dogs, intravenous 67 μg/kg, read-out: Vss): 0.15 ± 0.02 L/kg
Exposure in dogs (sc@67 μg/kg) ([4]; sc 67 μg/kg, vehicle 0.2 M Tris buffer (pH 8.0)): 1467 nM·h
Exposure/dose during ipGTT in ob/ob mice [5]: 11 nM * h/nmol/kg
